The subject of the test is ceramide. The experiment in a line: Pulmonary ceramide concentration in lung extracts of treated mice. Format: in vivo. On the procedure: The inhalation was carried out with the aid of an inhaler (Pariboy® SX). The liquid reservoir in this inhaler was connected to an air nozzle, whereby it was possible to produce a fine aerosol which was inhaled through a mask by the mice. For this, the noses of the experimental animals were pressed manually into the opening of the mask for 10 minutes. This permitted excellent control of the inhalation process. All mice were subjected to an inhalation process 3 times at an interval of 12 hours.
After killing the experimental animals, the lungs were removed, homogenized under liquid nitrogen and added to a mixture of chloroform, methanol and 1N hydrochloric acid (100:100:1, v/v/v). After addition of 200 μl of H2O, the samples were centrifuged for 5 minutes (14,000 rpm, rotations per minute). The lower phase was then collected, dried and subjected to an alkaline hydrolysis of diacylglycerol in 0.1 N methanolic potassium hydroxide solution at 37° C. for 60 minutes. The samples were extracted again, and the lower phase was dried and subsequently resuspended in 20 μl of a detergent solution (7.5% (w/v) of n-octylglucopyranoside, 5 mM cardiolipin in 1 mM diethylenetriaminepentaacetic acid (DTPA)). After an ultrasound treatment (10 minutes), the samples were added to 70 μl of a reaction mixture which contained 10 μl of diacylglycerol kinase (GE Healthcare Europe, Munich, Germany), 0.1 M imidazole/HCl (pH 6.6), 0.2 mM diethylenetriaminepentaacetic acid (pH 6.6), 70 mM sodium chloride, 17 mM magnesium chloride, 1.4 mM EGTA, 2 mM DTT, 1 μM ATP and 10 μCi of [^32P]γATP. The kinase reaction was carried out for 30 minutes at room temperature and subsequently ended by addition of 1 ml of chloroform:methanol:1 N HCl (100:100:1, v/v/v), 170 μl of buffered saline solution (135 mM sodium chloride, 1.5 mM calcium chloride, 0.5 mM magnesium chloride, 5.6 mM glucose, 10 mM HEPES, pH 7.2) and 30 μl of a 100 mM EDTA solution. The samples were then vortexed and the resulting phases were separated. […] The incorporation of [^32P] in ceramide was quantified by means of liquid scintillation counting, since the spots […]. The amounts of ceramide were determined by comparison with a standard curve using C16-ceramide as substrate.
Wild-type mice and Cftr-deficient mice were inhaled with a solution of 4 mg/l of amitriptyline, 12.5 mg/l of trimipramine, 9 mg/l of desipramine, 8 mg/l of chlorprothixene, 4.5 mg/l of fluoxetine, 5 mg/l of amlodipine and 35 mg/l of sertraline. […] The lungs were removed from the experimental animals 60 minutes after the inhalation, and the pulmonary ceramide concentration in the lung extracts was determined. […]

In the case of `CN(C)CCC=C1c2ccccc2CCc2ccccc21` [amitriptyline], the “ceramide concentration in lung extracts” value (Cftr-deficient mice, 12 h after inhalation of 1 ml amitriptyline solution (4 mg/l)) is listed as 5.2±0.79 pmol/μg of protein; the “ceramide concentration in lung extracts” value (Cftr-deficient mice, parenterally treated, 12 h after intraperitoneal injection of 250 micrograms) was 4.9±0.7 pmol/μg of protein; the “ceramide concentration in lung extracts” value (wild-type mice, 12 h after inhalation of 1 ml amitriptyline solution (4 mg/l)) is 1.6±0.3 pmol/μg of protein; the “ceramide concentration in lung extracts” value (wild-type mice, parenterally treated, 12 h after intraperitoneal injection of 250 micrograms) is on record as 1.5±0.4 pmol/μg of protein.
